For one data set, the system named is Acinetobacter. As to the kind of experiment: Anti-pathogenic microorganism test. Type of data set: cell-based.
For data set [1] the following is noted: room temperature; background description; cited from earlier work.
The test system of the next data set is Candida albicans. As to the kind of experiment: Anti-pathogenic microorganism test. The data set is classed as cell-based.
The subject of data set [2] is Methicillin Resistant Staphylococcus Aureus (MRSA). As to the kind of experiment: Anti-pathogenic microorganism test. The data set is classed as cell-based.
For the next data set, the system named is Escherichia coli. Nature of the data set: Anti-pathogenic microorganism test. Type of data set: cell-based.
For a further data set, the system named is Helicobacter pylori. Nature of the data set: Anti-pathogenic microorganism test. The data set is classed as cell-based.
The conditions of data set [3]: background description; cited from earlier work.

In brackets after ≈: the same amount, converted by molar mass.

For `C=CCS[S+]([O-])CC=C` (stereo not shown) [Allicin, thio-2-propene-1-sulfinic acid S-allyl ester], the bactericidal activity result (in the data set with Acinetobacter; in the data set on Candida albicans; in data set [2]; in the data set on Escherichia coli; with Helicobacter pylori) was “obviously bactericidal activity” in each case. Also, the solubility in water result in data set [1] is on record as “slightly soluble in water”. Besides, in the data set on Candida albicans, the sensitivity to allicin entry is “sensitive”. Also, the MIC (in data set [2] (Staphylococcus aureus); in the data set with Helicobacter pylori) was 10 to 30 µg/mL (≈ 61.6 to 185 µM) each time. For the same molecule, the “decomposition when exposed to air” value in data set [3] was “decomposes and deteriorates within a few hours”.

The values are drawn from patent US9023623B2, “Method for preparing of allicin injection and low-temperature continuous stirring ultrafiltration device thereof” (Xinjiang Ailexin Pharmaceutical Co., Ltd., priority 2010, dated 2015).
